Earlier results, collected in patent publication US9206466B2, “Compositions and methods for regulating peptidyltransferase activity and uses thereof” (University of Maryland, priority 2004, dated 2015).

Columns and labels:
−1 PRF = conditions: yeast; Dinman et al., 1997
killer virus = conditions: yeast; Dinman et al., 1997

For `CSC[S@+]([O-])C[C@H](CO)NC(=O)/C=C/c1c(C)[nH]c(=O)[nH]c1=O` [sparsomycin], the “−1 PRF efficiencies” value (−1 PRF) is given as “promoted increased −1 PRF efficiencies” and the “maintenance of the killer virus” value (killer virus) is given as “loss of the killer virus”.
